Test results from ChEMBL document CHEMBL1140762, “Acridones circumvent P-glycoprotein-associated multidrug resistance (MDR) in cancer cells” (Bioorg Med Chem, 2008).

Legend:
[1] = target: T1, ATP-dependent translocase ABCB1 (Homo sapiens, UniProt P08183); experiment: Inhibition of P-glycoprotein in MDR human KBChR-8-5 cells assessed as retention of [3H]VLB after 2 hrs; type: cell-based; set-up: concentration or dose not given beside the values
KB-Vi = experiment: Displacement of [3H]azidopine from human P-glycoprotein in KB-Vi cells; type: cell-based; set-up: concentration or dose not given beside the values
[2] = Dissociation constant, pKa of the compound; type: physicochemical
[3] = target: T1, ATP-dependent translocase ABCB1; experiment: Inhibition of P-glycoprotein in MDR human KBChR-8-5 cells assessed as uptake of vinblastin relative to control; type: cell-based; set-up: concentration or dose not given beside the values
MDR = experiment: Cytotoxicity against MDR human KBChR cells; type: functional, cell-based
[4] = Lipophilicity, log P of the compound; type: physicochemical; conditions: octanol/water

T1 sequence (P08183 whole entry): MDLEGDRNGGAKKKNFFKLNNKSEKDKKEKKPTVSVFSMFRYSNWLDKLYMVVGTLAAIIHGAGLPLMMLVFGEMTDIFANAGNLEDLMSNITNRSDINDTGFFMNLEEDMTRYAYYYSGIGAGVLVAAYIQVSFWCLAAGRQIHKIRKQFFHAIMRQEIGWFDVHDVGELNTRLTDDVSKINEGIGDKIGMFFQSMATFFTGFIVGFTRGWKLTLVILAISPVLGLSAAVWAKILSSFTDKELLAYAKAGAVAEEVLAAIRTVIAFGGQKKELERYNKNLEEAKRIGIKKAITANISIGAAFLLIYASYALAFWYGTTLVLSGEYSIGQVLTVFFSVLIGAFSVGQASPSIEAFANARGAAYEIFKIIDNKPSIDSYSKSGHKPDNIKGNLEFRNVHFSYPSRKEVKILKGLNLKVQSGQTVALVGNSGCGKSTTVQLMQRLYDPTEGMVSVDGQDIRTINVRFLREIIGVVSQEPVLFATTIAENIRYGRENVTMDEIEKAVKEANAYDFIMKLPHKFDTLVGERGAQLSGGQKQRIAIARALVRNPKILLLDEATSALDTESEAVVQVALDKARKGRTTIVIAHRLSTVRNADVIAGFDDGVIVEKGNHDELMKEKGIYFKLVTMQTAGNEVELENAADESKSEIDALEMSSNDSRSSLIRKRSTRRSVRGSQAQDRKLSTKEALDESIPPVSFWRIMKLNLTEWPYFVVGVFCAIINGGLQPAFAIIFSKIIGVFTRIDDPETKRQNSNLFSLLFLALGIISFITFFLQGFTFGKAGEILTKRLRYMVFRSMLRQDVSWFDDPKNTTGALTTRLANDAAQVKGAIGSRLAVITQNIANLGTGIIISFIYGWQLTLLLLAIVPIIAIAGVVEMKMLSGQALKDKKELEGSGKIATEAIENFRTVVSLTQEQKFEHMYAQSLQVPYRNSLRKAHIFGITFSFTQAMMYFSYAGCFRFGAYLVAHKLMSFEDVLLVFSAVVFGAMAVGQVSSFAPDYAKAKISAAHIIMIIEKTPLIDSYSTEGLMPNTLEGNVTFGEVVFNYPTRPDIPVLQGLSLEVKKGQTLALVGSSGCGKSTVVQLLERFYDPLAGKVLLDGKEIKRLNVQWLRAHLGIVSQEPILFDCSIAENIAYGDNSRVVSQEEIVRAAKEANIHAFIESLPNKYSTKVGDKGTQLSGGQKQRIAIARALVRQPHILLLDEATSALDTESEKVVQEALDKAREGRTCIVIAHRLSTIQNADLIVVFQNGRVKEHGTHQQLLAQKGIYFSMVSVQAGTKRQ

Row | Activity [1] [%] | pKa [2] | Activity [3] [%] | logP [4] | SMILES | Activity (KB-Vi) [%] | IC10 (MDR) [µM] | IC50 (MDR) [µM]
1 | 74 | 4.8 | 1219 | 1.67 | O=c1c2ccccc2n(CCCCN(CCO)CCO)c2ccc(Cl)cc12 | 20 | 0.6 | 5
2 | 66 | 4.8 | 1017 | 1.47 | O=c1c2ccccc2n(CCCN(CCO)CCO)c2ccc(Cl)cc12 | 40 | 1.2 | 8.7
3 | 77.2 | 5.45 | 1356 | 1.9 | CCN(CC)CCCCn1c2ccccc2c(=O)c2cc(Cl)ccc21 | 20 | 0.62 | 9.1
4 | 80.5 | 5.26 | 2010 | 2.25 | O=c1c2ccccc2n(CCCCN2CCN(CCO)CC2)c2ccc(Cl)cc12 | 10 | 0.46 | 4.5
5 | 79 | 5.28 | 1010 | 1.74 | O=c1c2ccccc2n(CCCCN2CCCC2)c2ccc(Cl)cc12 | 30 | 1.85 | 12.5
6 | 60.5 | 8.85 | 982 | 1.68 | O=c1c2ccccc2n(CCCCCl)c2ccc(Cl)cc12 | 70 | 1.25 | 10.8
7 | 40 | 8.65 | 880 | 1.38 | O=c1c2ccccc2n(CCCCl)c2ccc(Cl)cc12 | 83 | 1.35 | 15
8 | 47 | 5.37 | 948 | 1.54 | CCN(CC)CCCn1c2ccccc2c(=O)c2cc(Cl)ccc21 | 80 | 1 | 12.5

The next lines start with the molecule.

Row | SMILES | Activity [1] [%] | pKa [2] | Activity [3] [%] | logP [4] | Activity (KB-Vi) [%] | IC10 (MDR) [µM] | IC50 (MDR) [µM]
9 | O=c1c2ccccc2n(CCCN2CCCCC2)c2ccc(Cl)cc12 | 54.5 | 5.39 | 927 | 1.52 | 50 | 1.25 | 15.5
10 | CN1CCN(CCCCn2c3ccccc3c(=O)c3cc(Cl)ccc32)CC1 | 75 | 5.61 | 1420 | 1.95 | 20 | 0.8 | 8
11 | O=c1c2ccccc2n(CCCN2CCCC2)c2ccc(Cl)cc12 | 56 | 5.21 | 988 | 1.55 | 50 | 0.9 | 14
12 | O=c1c2ccccc2n(CCCCN2CCCCC2)c2ccc(Cl)cc12 | 77 | 5.36 | 1855 | 2.01 | 15 | 0.6 | 5.2
13 | CN1CCN(CCCn2c3ccccc3c(=O)c3cc(Cl)ccc32)CC1 | 51 | 5.28 | 1010 | 1.48 | 45 | 0.8 | 9
14 | O=c1c2ccccc2n(CCCCN2CCOCC2)c2ccc(Cl)cc12 | 76 | 4.91 | 1690 | 1.89 | 15 | 0.72 | 6
15 | O=c1c2ccccc2n(CCCN2CCOCC2)c2ccc(Cl)cc12 | 62 | 4.87 | 1372 | 1.64 | 30 | 1.15 | 10.5
16 | O=c1c2ccccc2[nH]c2ccc(Cl)cc12 | 49 | 8.29 | 715 | 2.06 | 85 | 1.41 | 18
17 | O=c1c2ccccc2n(CCCN2CCN(CCO)CC2)c2ccc(Cl)cc12 | 56.5 | 5.26 | 1252 | 1.76 | 35 | 0.74 | 7.5
